Measured values reported in PubChem BioAssay (NCI).
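Each compound was tested at five concentrations against cells in 96-well plates for 48 hours. GI50 is the concentration that inhibits growth by half. TGI marks complete inhibition of growth.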

What was measured:
Test in all cases: NCI tumour cell line growth inhibition, 48 h
[1] = tested on: A498 renal
[2] = tested on: HCT-15 colon
[3] = tested on: NCI/ADR-RES ovarian
[4] = tested on: ACHN renal
[5] = tested on: HCT-116 colon
[6] = tested on: SK-MEL-5 melanoma
[7] = tested on: HOP-62 NSCLC
[8] = tested on: MCF7 breast
[9] = tested on: MOLT-4 leukemia
[10] = tested on: COLO 205 colon

Compound | TGI [1] [µM] | TGI [2] [µM] | TGI [3] [µM] | TGI [4] [µM] | TGI [5] [µM] | TGI [6] [µM] | TGI [7] [µM] | TGI [8] [µM] | TGI [9] [µM] | TGI [10] [µM] | GI50 [1] [µM] | GI50 [2] [µM] | GI50 [3] [µM] | GI50 [4] [µM] | GI50 [5] [µM] | GI50 [6] [µM] | GI50 [7] [µM] | GI50 [8] [µM] | GI50 [9] [µM] | GI50 [10] [µM]
Cc1nc(-c2ccccc2)c(-c2ccccc2)s1 | 64.4 | 39 | 65.4 | 97.9 | 68.8 | 27.5 | > 100 | 62.3 | 38.8 | 38.8 | – | – | – | – | – | – | – | – | – | –
Cc1ccc(NC(=O)NCCCOc2ccc(N3C(N)=NC(N)=NC3(C)C)cc2Cl)cc1S(=O)(=O)F | > 100 | > 100 | > 100 | > 100 | > 100 | 21.5 | > 100 | > 100 | > 100 | 95.7 | 75.5 | > 100 | > 100 | 49.3 | 2.22 | 1.88 | 9.46 | 4.93 | 9.26 | 13.6
Nc1ncn(C2CC(O)C(CO)O2)c(=O)n1 (centres undefined) | > 332 | > 302 | > 375 | > 375 | > 375 | 254 | > 319 | > 375 | > 375 | > 298 | – | – | – | – | – | – | – | – | – | –
CN1C(=O)c2ccccc2NC(=O)C12O[C@@H]2c1cccc(O)c1 (some centres undefined) | > 100 | > 100 | > 100 | > 100 | > 100 | > 100 | > 100 | > 100 | > 100 | > 100 | – | – | – | – | – | – | – | – | – | –
CC(C)CCCC(=O)CCCCCCC(=O)CCN(O)C(=O)C(N)CO (centres undefined) | 31.8 | 42.6 | 38.4 | 34.9 | 38 | 43.7 | 40.8 | 44.7 | > 100 | 53.5 | – | – | – | – | – | – | – | – | – | –
C=C1C(=O)O[C@H]2[C@H]1CC/C(COC(=O)c1cc3ccccc3s1)=C\CC[C@@]1(C)O[C@@H]21 | 21.8 | 1.79 | 6.63 | 2.93 | 2.1 | 3.21 | 3.42 | 2.02 | 7.69 | 3.48 | 10.1 | 0.4 | 2.14 | 1.5 | 0.591 | 1.75 | 1.81 | 0.389 | 1.88 | 1.71
COc1cc2c3c(n(C)c(=O)c2cc1OC)-c1cc2c(cc1/C3=C\CNCCCN)OCO2 | 12.1 | 17.7 | > 88.5 | 2.07 | 4.19 | 2.71 | 10.9 | 16.5 | 0.0502 | 8.71 | 3.84 | 3.13 | 5.26 | 0.271 | 0.107 | 1.03 | 0.625 | 1.04 | 0.0118 | 0.232
COc1cc(NS(=O)(=O)c2ccc(-c3cnc(C4CC4)o3)cc2)ccc1F | 0.892 | 17.1 | 10.2 | 46 | 14.1 | 13.1 | 18.8 | 22.9 | > 100 | 9.57 | 0.0833 | 0.198 | 0.339 | 0.594 | 0.29 | 0.638 | 0.646 | 0.201 | 0.564 | 0.506
COC(=O)c1c(C)[nH]c(/C=C2\N=C(c3ccc[nH]3)C=C2OC)c1C | 10.7 | 1.24 | 4.6 | 1.43 | 1.2 | 0.665 | – | 3.12 | > 36.5 | 1.6 | 2.64 | 0.0375 | 0.109 | 0.189 | 0.0378 | 0.225 | 0.769 | 0.413 | 0.0495 | 0.288
CC1(C)N=C(N)N=C(N)N1c1ccc(OCc2ccc(S(=O)(=O)F)c(Cl)c2)c(Cl)c1 | > 100 | > 100 | > 100 | > 100 | > 100 | > 100 | > 100 | > 100 | > 100 | > 100 | > 100 | 0.586 | 60 | 5.48 | 0.51 | 1.03 | 7.93 | 0.641 | 3.59 | 5.74
